These results are taken from patent EP3345917A1, “ANTIPROTOZOAL COMPOUNDS” (Bacoba AG, priority 2017, dated 2018).

Non-standard residues stand in square brackets, D forms with d. Residues, ends and D or L forms follow the SMILES beside them. *: point of attachment. Hexenoyl(2E,4S-Me) = CC[C@H](C)/C=C/C(=O)*; Leu(3R-OH) = CC(C)[C@@H](O)[C@H](N)C(=O)O; NH((S)CH(Me)CH2NMe2) = C[C@@H](CN(C)C)N*; Gly(octyl) = CCCCCCCC[C@H](N)C(=O)O; X16 = COc1ccc2cc(C(=O)*)c(=O)oc2c1; X17 = C[C@@H](CN1CCOCC1)N*; Nle = CCCC[C@H](N)C(=O)O; Hexanoyl = CCCCCC(=O)*; Aib = CC(C)(N)C(=O)O; βAla = NCCC(=O)O

One data set concerns Plasmodium falciparum. The experiment in a line: 3H-hypoxanthine incorporation assay against Plasmodium falciparum. In kind it is cell-based. Conditions: In vitro inhibition, read-out: P.falc NF5. The method, then:
(§1) Tests were done in triplicate.
IC50 values were calculated by linear interpolation.

Data set [1] in a line: Cytotoxicity assay on L6-cells (Alamar Blue). Particulars: rat, Cytotox L6, Cytotoxicity against rat myoblast cells (L6).
Data set [2] relates to Axenically grown Leishmania donovani amastigotes (strain MHOM/ET/67/L82). The experiment in a line: Axenic Leishmania donovani amastigote resazurin assay. In kind it is cell-based. Conditions: In vitro inhibition, read-out: L.don. ax. The method, then: as §1
Axenically grown Leishmania donovani amastigotes (strain MHOM/ET/67/L82) were grown and tests were done as previously described using the resazurin assay (Räz B et al. Acta Tropica 1997, 68:139-147). The plates were developed for 2-4 hours and read on a Spectramax Gemini XS micro plate fluorometer (Molecular Devices Cooperation) using an excitation wavelength of 536 nm and emission wavelength of 588 nm. Fluorescence development was measured and expressed as percentage of the negative control. […] Data were transferred to the graphic programme Softmax Pro (Molecular Devices), with which IC50 values were calculated.

Data set [3] deals with Trypanosoma cruzi trypomastigote forms (Tulahuen strain). Kind of data set: Intracellular Trypanosoma cruzi assay in L6-cells, beta-galactosidase/CPRG readout. The data set is classed as cell-based. Particulars: In vitro inhibition, read-out: T.cruzi. The method, then:
as §1
Trypanosoma cruzi trypomastigote forms (Tulahuen strain C2C4 containing β-galactosidase (Lac Z) gene) were cultured as described by Buckner et al. (Buckner FS et al. Antimicrob Agents Ch1996; 40: 2592-2597) in rat myoblast cells (L6-cells). […] After incubation, the substrate chlorophenyl red β-D-galactopyranoside agent CPRG/Nonident was added to all wells and a color change was developed within 2 to 6 h. The plates were read photometrically at 540 nm (Molecular Devices). Data were evaluated and IC50 values calculated using Softmax Pro software (Molecular Devices).

For data set [4], the system named is Trypanosoma brucei rhodesiense (STIB 900 strain). The experiment in a line: Alamar Blue assay against Trypanosoma brucei rhodesiense grown in axenic medium. The data set is classed as cell-based. Particulars: In vitro inhibition, read-out: T.b.rhod. The method, then: as §1
Trypanosoma brucei rhodesiense (STIB 900) were grown in axenic medium as described by Baltz et al. (1985) The samples were tested using the Alamar Blue assay protocol (Baltz T et al. EMBO J 1985; 4:1273-1277) to determine the 50% inhibitory concentration (IC50). […] Melarsoprol (Arsobal®, Sanofi-Aventis, Switzerland) was used as a reference drug (IC50= 0.03 ± 0.01 µM). Its purity was over 95 %, as was certified by the supplier. The IC50 values were calculated by using Softmax Pro software (Molecular Devices Cooperation, Sunnyvale, CA).
In general terms: The colour change of resazurin is a common sign of viable cells or microbes.

Regarding `CCCCCCCC[C@H](NC(=O)[C@@H]1CCCN1C(=O)CCCCC)C(=O)N[C@H](C(=O)N[C@@H](CC(C)C)C(=O)N[C@@H](CC(C)C)C(=O)NC(C)(C)C(=O)NC(C)(C)C(=O)NCCC(=O)N[C@@H](C)CN(C)C)[C@@H](C)O` [Compound 5598, (2S)-N-[(1S,2R)-1-{[(1S)-1-{[(1S)-1-{[1-({1-[(2-{[(2S)-1-(dimethylamino)propan-2-yl]carbamoyl}ethyl)carbamoyl]-1-methylethyl}carbamoyl)-1-methylethyl]carbamoyl}-3-methylbutyl]carbamoyl}-3-methylbutyl]carbamoyl}-2-hydroxypropyl]-2-{[(2S)-1-hexanoylpyrrolidin-2-yl]formamido}decanamide] (Hexanoyl-P[Gly(octyl)]TLL[Aib][Aib][βAla]-{NH((S)CH(Me)CH2NMe2)}), the IC50 in the data set on Plasmodium falciparum is 2130 nM; in data set [2] it was 556 nM; in data set [3], 6590 nM; in data set [4] it was 1240 nM. Also, in data set [1], the IC50 at 70 h was found to be 3780 nM.

Regarding `CCCCCCCC[C@H](NC(=O)[C@@H]1CCCN1C(=O)/C=C/[C@@H](C)CC)C(=O)N[C@H](C(=O)NCCC(=O)N[C@@H](C)CN(C)C)[C@H](O)C(C)C` [Compound 5523, (2S)-N-[(1S,2R)-1-[(2-{[(2S)-1-(dimethylamino)propan-2-yl]carbamoyl}ethyl)carbamoyl]-2-hydroxy-3-methylbutyl]-2-{[(2S)-1-[(2E,4S)-4-methylhex-2-enoyl]pyrrolidin-2-yl]formamido}decanamide], the IC50 was 4750 nM in the data set with Plasmodium falciparum, 482 nM in data set [2], 5730 nM in data set [3] and 2440 nM in data set [4]. Moreover, the IC50 at 70 h in data set [1] was found to be 8610 nM.

Consider `CCCCCCCC[C@H](NC(=O)[C@@H]1CCCN1C(=O)CCCCC)C(=O)N[C@H](C(=O)N[C@@H](CC(C)C)C(=O)N[C@@H](CC(C)C)C(=O)NC(C)(C)C(=O)NCCC(=O)N[C@@H](C)CN(C)C)[C@@H](C)O` [Compound 5599, (2S)-N-[(1S,2R)-1-{[(1S)-1-{[(1S)-1-({1-[(2-{[(2S)-1-(dimethylamino)propan-2-yl]carbamoyl}ethyl)carbamoyl]-1-methylethyl}carbamoyl)-3-methylbutyl]carbamoyl}-3-methylbutyl]carbamoyl}-2-hydroxypropyl]-2-{[(2S)-1-hexanoylpyrrolidin-2-yl]formamido}decanamide] (Hexanoyl-P[Gly(octyl)]TLL[Aib][βAla]-{NH((S)CH(Me)CH2NMe2)}), for which the IC50 amounted to 3500 nM in the data set with Plasmodium falciparum, 4810 nM in data set [2], 8360 nM in data set [3] and 1940 nM in data set [4]. In data set [1], the IC50 at 70 h was 6950 nM.

For `CCCCCCCC[C@H](NC(=O)[C@@H]1CCCN1C(=O)/C=C/[C@@H](C)CC)C(=O)N[C@@H](CO)C(=O)NC(C)(C)C(=O)N[C@@H](CC(C)C)C(=O)N[C@@H](CC(C)C)C(=O)NC(C)(C)C(=O)NC(C)(C)C(=O)NCCC(=O)N[C@@H](C)CN(C)C` (stereo in doubt) [Compound 5521, (2S)-N-[(1S)-1-[(1-{[(1S)-1-{[(1S)-1-{[1-({1-[(2-{[(2S)-1-(dimethylamino)propan-2-yl]carbamoyl}ethyl)carbamoyl]-1-methylethyl}carbamoyl)-1-methylethyl]carbamoyl}-3-methylbutyl]carbamoyl}-3-methylbutyl]carbamoyl}-1-methylethyl)carbamoyl]-2-hydroxyethyl]-2-{[(2S)-1-[(2E,4S)-4-methylhex-2-enoyl]pyrrolidin-2-yl]formamido}decanamide], the IC50 with Plasmodium falciparum was found to be 8.5 nM; in data set [2], 3.6 nM; in data set [3] it was 807 nM; in data set [4] it was 1.3 nM. For the same compound, in data set [1], the IC50 at 70 h was determined as 1650 nM.

`CCCCCCCC[C@H](NC(=O)[C@@H]1CCCN1C(=O)CCCCC)C(=O)N[C@@H](CC(C)C)C(=O)NC(C)(C)C(=O)N[C@@H](CC(C)C)C(=O)N[C@@H](CC(C)C)C(=O)NC(C)(C)C(=O)NC(C)(C)C(=O)NCCC(=O)N[C@@H](C)CN1CCOCC1` [Compound 5981, (2S)-2-{[(2S)-1-hexanoylpyrrolidin-2-yl]formamido}-N-[(1S)-3-methyl-1-[(1-methyl-1-{[(1S)-3-methyl-1-{[(1S)-3-methyl-1-{[1-methyl-1-({1-methyl-1-[(2-{[(2S)-1-(morpholin-4-yl)propan-2-yl]carbamoyl}ethyl)carbamoyl]ethyl}carbamoyl)ethyl]carbamoyl}butyl]carbamoyl}butyl]carbamoyl}ethyl)carbamoyl]butyl]decanamide] (Hexanoyl-P[Gly(octyl)]L[Aib]LL[Aib][Aib][βAla]-X17): the IC50 is 35800 nM in the data set on Plasmodium falciparum, 0.2 nM in data set [2], 723 nM in data set [3] and 17.9 nM in data set [4]. The compound further yielded an IC50 at 70 h in data set [1] of 1080 nM.

On to `CCCC[C@H](NC(=O)[C@@H]1CCCN1C(=O)/C=C/[C@@H](C)CC)C(=O)N[C@H](C(=O)NC(C)(C)C(=O)N[C@@H](CC(C)C)C(=O)N[C@@H](CC(C)C)C(=O)NC(C)(C)C(=O)NC(C)(C)C(=O)NCCC(=O)N[C@@H](C)CN(C)C)[C@H](O)C(C)C` [Compound 5561, (2S)-N-[(1S,2R)-1-[(1-{[(1S)-1-{[(1S)-1-{[1-({1-[(2-{[(2S)-1-(dimethylamino)propan-2-yl]carbamoyl}ethyl)carbamoyl]-1-methylethyl}carbamoyl)-1-methylethyl]carbamoyl}-3-methylbutyl]carbamoyl}-3-methylbutyl]carbamoyl}-1-methylethyl)carbamoyl]-2-hydroxy-3-methylbutyl]-2-{[(2S)-1-[(2E,4S)-4-methylhex-2-enoyl]pyrrolidin-2-yl]formamido}hexanamide] ({Hexenoyl(2E,4S-Me)}-P[Nle][Leu(3R-OH)][Aib]LL[Aib][Aib][βAla]-{NH((S)CH(Me)CH2NMe2)}), for which the IC50 with Plasmodium falciparum turned out to be 4.5 nM; in data set [2], 4.1 nM; in data set [3] it was 162 nM; in data set [4], 0.7 nM. This compound also gave an IC50 at 70 h in data set [1] of 356 nM.

For the compound `CCCCCC(=O)N1CCC[C@H]1C(=O)N[C@@H](CCCCNC(=O)c1cc2ccc(OC)cc2oc1=O)C(=O)N[C@@H](CC(C)C)C(=O)NC(C)(C)C(=O)N[C@@H](CC(C)C)C(=O)N[C@@H](CC(C)C)C(=O)NC(C)(C)C(=O)NC(C)(C)C(=O)NCCC(=O)N[C@@H](C)CN(C)C` [Compound 5767, (2S)-N-[(1S)-1-[(1-{[(1S)-1-{[(1S)-1-{[1-({1-[(2-{[(2S)-1-(dimethylamino)propan-2-yl]carbamoyl}ethyl)carbamoyl]-1-methylethyl}carbamoyl)-1-methylethyl]carbamoyl}-3-methylbutyl]carbamoyl}-3-methylbutyl]carbamoyl}-1-methylethyl)carbamoyl]-3-methylbutyl]-2-{[(2S)-1-hexanoylpyrrolidin-2-yl]formamido}-6-[(7-methoxy-2-oxo-2H-chromen-3-yl)formamido]hexanamide] (Hexanoyl-PK(X16)L[Aib]LL[Aib][Aib][βAla]-{NH((S)CH(Me)CH2NMe2)}), the IC50 in the data set with Plasmodium falciparum was 21.3 nM; in data set [2], 17.8 nM; in data set [3] it was 114 nM; in data set [4], 3.5 nM. For the same compound, in data set [1], the IC50 at 70 h amounted to 508 nM.

Take `CCCCCCCC[C@H](NC(=O)[C@@H]1CCCN1C(=O)CCCCC)C(=O)N[C@H](C(=O)N[C@@H](CC(C)C)C(=O)NC(C)(C)C(=O)NC(C)(C)C(=O)NCCC(=O)N[C@@H](C)CN(C)C)[C@@H](C)O` [Compound 5596, (2S)-N-[(1S,2R)-1-{[(1S)-1-{[1-({1-[(2-{[(2S)-1-(dimethylamino)propan-2-yl]carbamoyl}ethyl)carbamoyl]-1-methylethyl}carbamoyl)-1-methylethyl]carbamoyl}-3-methylbutyl]carbamoyl}-2-hydroxypropyl]-2-{[(2S)-1-hexanoylpyrrolidin-2-yl]formamido}decanamide] (Hexanoyl-P[Gly(octyl)]TL[Aib][Aib][βAla]-{NH((S)CH(Me)CH2NMe2)}): the IC50 with Plasmodium falciparum was 1240 nM; in data set [2], 791 nM; in data set [3], 7740 nM; in data set [4] it was 667 nM. Besides, the IC50 at 70 h in data set [1] came to 5030 nM.
